Assay: xn = mol fraction of the nth substance listed
Settings: 100.9 kPa, Liquid; for speed of sound: Single path-length method; for mass density: Vibrating tube method; for viscosity: Concentric cylinders viscometry

CCCC(=O)[O-].CC[NH2+]CC [diethylammonium butanoate] + O
Settings	mass density [kg/m3]	speed of sound [m/s]	viscosity [mPa·s]
308.15 K, x1 = 0.0123	996.9	–	–
308.15 K, x1 = 0.0453	1000.03	–	–
308.15 K, x1 = 0.1005	994.12	–	–
308.15 K, x1 = 0.1439	981.01	–	–
308.15 K, x1 = 0.2067	973.03	1659.9	–
308.15 K, x1 = 0.3096	957.65	1581.6	–
308.15 K, x1 = 0.4951	938.09	1494	–
308.15 K, x1 = 0.6812	927.6	1435.5	–
308.15 K, x1 = 0.7974	912	1424.2	–
308.15 K, x1 = 0.974	907.1	1382.6	–
310.65 K, x1 = 0.0122	–	–	1.06
310.65 K, x1 = 0.0451	–	–	2.43
310.65 K, x1 = 0.0999	–	–	5.73
310.65 K, x1 = 0.143	–	–	8.92
310.65 K, x1 = 0.2051	–	–	14.41
310.65 K, x1 = 0.3064	–	–	24.13
310.65 K, x1 = 0.4879	–	–	34.17
310.65 K, x1 = 0.6684	–	–	35.33
310.65 K, x1 = 0.974	–	–	30.78
313.15 K, x1 = 0.0122	–	–	1.01
313.15 K, x1 = 0.0123	995	1615.3	–
313.15 K, x1 = 0.0451	–	–	2.26
313.15 K, x1 = 0.0453	997.13	1743.8	–
313.15 K, x1 = 0.0999	–	–	5.25
313.15 K, x1 = 0.1005	991.05	1736.7	–
313.15 K, x1 = 0.143	–	–	8.13
313.15 K, x1 = 0.1439	977.64	1702.2	–
313.15 K, x1 = 0.2051	–	–	13.03
313.15 K, x1 = 0.2067	969.96	1644.3	–
313.15 K, x1 = 0.3064	–	–	21.59
313.15 K, x1 = 0.3096	954.6	1565.2	–
313.15 K, x1 = 0.4879	–	–	30.39
313.15 K, x1 = 0.4951	934.18	1478.3	–
313.15 K, x1 = 0.6684	–	–	31.48
313.15 K, x1 = 0.6812	925.21	1418.8	–
313.15 K, x1 = 0.7974	908.2	1408.5	–
313.15 K, x1 = 0.974	903.2	1365.2	27.55
315.65 K, x1 = 0.0122	–	–	0.96
315.65 K, x1 = 0.0451	–	–	2.1
315.65 K, x1 = 0.0999	–	–	4.82
315.65 K, x1 = 0.143	–	–	7.42
315.65 K, x1 = 0.2051	–	–	11.82
315.65 K, x1 = 0.3064	–	–	19.39
315.65 K, x1 = 0.4879	–	–	27.14
315.65 K, x1 = 0.6684	–	–	28.13
315.65 K, x1 = 0.974	–	–	24.73
318.15 K, x1 = 0.0122	–	–	0.92
318.15 K, x1 = 0.0123	992.7	1617.5	–
318.15 K, x1 = 0.0451	–	–	1.96
318.15 K, x1 = 0.0453	994.15	1734.2	–
318.15 K, x1 = 0.0999	–	–	4.45
318.15 K, x1 = 0.1005	987.76	1722.8	–
318.15 K, x1 = 0.143	–	–	6.82
318.15 K, x1 = 0.1439	974.31	1687.3	–
318.15 K, x1 = 0.2051	–	–	10.76
318.15 K, x1 = 0.2067	967.21	1628.7	–
318.15 K, x1 = 0.3064	–	–	17.45
318.15 K, x1 = 0.3096	952.7	1548.6	–
318.15 K, x1 = 0.4879	–	–	24.28
318.15 K, x1 = 0.4951	930.28	1462.4	–
318.15 K, x1 = 0.6684	–	–	25.23
318.15 K, x1 = 0.6812	922.19	1401.9	–
318.15 K, x1 = 0.7974	904.3	1393.8	–
318.15 K, x1 = 0.974	899.2	1348.2	22.26
320.65 K, x1 = 0.0122	–	–	0.87
320.65 K, x1 = 0.0451	–	–	1.84
320.65 K, x1 = 0.0999	–	–	4.11
320.65 K, x1 = 0.143	–	–	6.24
320.65 K, x1 = 0.2051	–	–	9.82
320.65 K, x1 = 0.3064	–	–	15.77
320.65 K, x1 = 0.4879	–	–	21.77
320.65 K, x1 = 0.6684	–	–	22.68
320.65 K, x1 = 0.974	–	–	20.08
323.15 K, x1 = 0.0122	–	–	0.84
323.15 K, x1 = 0.0123	990.45	1618.6	–
323.15 K, x1 = 0.0451	–	–	1.72
323.15 K, x1 = 0.0453	991.08	1724.2	–
323.15 K, x1 = 0.0999	–	–	3.8
323.15 K, x1 = 0.1005	984.28	1708.8	–
323.15 K, x1 = 0.143	–	–	5.75
323.15 K, x1 = 0.1439	971.05	1672.4	–
323.15 K, x1 = 0.2051	–	–	8.98
323.15 K, x1 = 0.2067	964.37	1612.6	–
323.15 K, x1 = 0.3064	–	–	14.26
323.15 K, x1 = 0.3096	949.4	1531.7	–
323.15 K, x1 = 0.4879	–	–	19.64
323.15 K, x1 = 0.4951	926.37	1446.2	–
323.15 K, x1 = 0.6684	–	–	20.46
323.15 K, x1 = 0.6812	918.45	1384.7	–
323.15 K, x1 = 0.7974	900.35	1379.5	–
323.15 K, x1 = 0.974	895.2	1343.3	18.14
325.65 K, x1 = 0.0122	–	–	0.8
325.65 K, x1 = 0.0451	–	–	1.62
325.65 K, x1 = 0.0999	–	–	3.53
325.65 K, x1 = 0.143	–	–	5.31
325.65 K, x1 = 0.2051	–	–	8.24
325.65 K, x1 = 0.3064	–	–	12.94
325.65 K, x1 = 0.4879	–	–	17.73
325.65 K, x1 = 0.6684	–	–	18.49
325.65 K, x1 = 0.974	–	–	16.45
328.15 K, x1 = 0.0122	–	–	0.75
328.15 K, x1 = 0.0451	–	–	1.52
328.15 K, x1 = 0.0999	–	–	3.29
328.15 K, x1 = 0.143	–	–	4.92
328.15 K, x1 = 0.2051	–	–	7.58
328.15 K, x1 = 0.3064	–	–	11.79
328.15 K, x1 = 0.4879	–	–	16.02
328.15 K, x1 = 0.6684	–	–	16.76
328.15 K, x1 = 0.974	–	–	14.94
330.65 K, x1 = 0.0122	–	–	0.72
330.65 K, x1 = 0.0451	–	–	1.44
330.65 K, x1 = 0.0999	–	–	3.07
330.65 K, x1 = 0.143	–	–	4.57
330.65 K, x1 = 0.2051	–	–	6.99
330.65 K, x1 = 0.3064	–	–	10.77
330.65 K, x1 = 0.4879	–	–	14.54
330.65 K, x1 = 0.6684	–	–	15.23
330.65 K, x1 = 0.974	–	–	13.61
333.15 K, x1 = 0.0122	–	–	0.69
333.15 K, x1 = 0.0451	–	–	1.36
333.15 K, x1 = 0.0999	–	–	2.87
333.15 K, x1 = 0.143	–	–	4.25
333.15 K, x1 = 0.2051	–	–	6.46
333.15 K, x1 = 0.3064	–	–	9.86
333.15 K, x1 = 0.4879	–	–	13.24
333.15 K, x1 = 0.6684	–	–	13.86
333.15 K, x1 = 0.974	–	–	12.38
335.65 K, x1 = 0.0122	–	–	0.66
335.65 K, x1 = 0.0451	–	–	1.29
335.65 K, x1 = 0.0999	–	–	2.7
335.65 K, x1 = 0.143	–	–	3.96
335.65 K, x1 = 0.2051	–	–	5.98
335.65 K, x1 = 0.3064	–	–	9.05
335.65 K, x1 = 0.4879	–	–	12.07
335.65 K, x1 = 0.6684	–	–	12.64
335.65 K, x1 = 0.974	–	–	11.33
338.15 K, x1 = 0.0122	–	–	0.64
338.15 K, x1 = 0.0451	–	–	1.22
338.15 K, x1 = 0.0999	–	–	2.53
338.15 K, x1 = 0.143	–	–	3.7
338.15 K, x1 = 0.2051	–	–	5.55
338.15 K, x1 = 0.3064	–	–	8.33
338.15 K, x1 = 0.4879	–	–	11.03
338.15 K, x1 = 0.6684	–	–	11.56
338.15 K, x1 = 0.974	–	–	10.37
340.65 K, x1 = 0.0122	–	–	0.61
340.65 K, x1 = 0.0451	–	–	1.16
340.65 K, x1 = 0.0999	–	–	2.39
340.65 K, x1 = 0.143	–	–	3.46
340.65 K, x1 = 0.2051	–	–	5.16
340.65 K, x1 = 0.3064	–	–	7.68
340.65 K, x1 = 0.4879	–	–	10.11
340.65 K, x1 = 0.6684	–	–	10.59
340.65 K, x1 = 0.974	–	–	9.48
343.15 K, x1 = 0.0122	–	–	0.59
343.15 K, x1 = 0.0451	–	–	1.1
343.15 K, x1 = 0.0999	–	–	2.25
343.15 K, x1 = 0.143	–	–	3.24
343.15 K, x1 = 0.2051	–	–	4.81
343.15 K, x1 = 0.3064	–	–	7.09
343.15 K, x1 = 0.4879	–	–	9.28
343.15 K, x1 = 0.6684	–	–	9.64
343.15 K, x1 = 0.974	–	–	8.7
